US12697330B2, “Therapeutic methods using vadadustat” (Akebia Therapeutics, Inc., priority 2021, dated 2026)

Test system: hemoglobin (Hb)
Assay: Phase 2 study in hemodialysis subjects converting from epoetin alfa, Main Study: efficacy (hemoglobin)
Type: in vivo, human
From the text: The primary objective was to assess the efficacy and safety of daily dosing of vadadustat compared to epoetin alfa for 12 weeks in hemodialysis subjects. Additional objectives included to assess the efficacy and safety of three times weekly (TIW) dosing of vadadustat in selected hemodialysis subjects who have been successfully managed with daily dosing of vadadustat through Week 12, to evaluate the PK/PD of daily and TIW dosing of vadadustat in hemodialysis subjects compared to epoetin alfa, and to assess the efficacy and safety of several dosing strategies of vadadustat compared to epoetin alfa during a 20-week Treatment Period in hemodialysis subjects.
The Main study population consisted of adult subjects receiving chronic, outpatient in-center hemodialysis three times weekly (TIW), with 2 screening hemoglobin (Hb) values between 8.5 and 11.0 g/dL (inclusive) and on maintenance treatment with epoetin alfa <300 U/kg/week.
Efficacy Endpoints. The primary endpoint was the mean change in Hb between Baseline (average pretreatment Hb) and the primary evaluation period (average Hb from Weeks 10 to 12). Secondary endpoints included proportion of subjects with Hb values within the target range (10.0 to 11.0 g/dL, inclusive) at the primary evaluation period (Weeks 10-12) and for subjects who transitioned to TIW vadadustat dosing, mean change in Hb from primary evaluation period (average Hb from Weeks 10-12) to the secondary period (average Hb from Weeks 18-20). Other secondary endpoints included mean change in Hb from Baseline (average pretreatment Hb) and the secondary evaluation period (average Hb from Weeks 18-20), proportion of subjects with Hb values within the target range (10.0 to 11.0 g/dL, inclusive) at the secondary evaluation period (Weeks 18 to 20), for subjects who transitioned to TIW vadadustat dosing, proportion of subjects with Hb values within the target range (10.0 to 11.0 g/dL, inclusive) at the secondary evaluation period (Weeks 18-20), proportion of subjects with a mean increase in Hb from Baseline to the primary evaluation period ≥0.5 g/dL (average Hb from Weeks 10-12) or with Hb values within the target range (10.0 to 11.0 g/dL, inclusive) at the primary evaluation period (Weeks 10-12), proportion of subject with a mean increase in Hb from Baseline to the secondary evaluation period ≥0.5 g/dL (average Hb from Weeks 18-20) or with Hb values within the target range (10.0 to 11.0 g/dL, inclusive) at the secondary evaluation period (Weeks 18-20), intravenous (IV) iron supplementation, ESA rescue, and RBC transfusion.
Study Design. This was a Phase 2, randomized, open-label study to evaluate vadadustat for the treatment of anemia in hemodialysis subjects converting from epoetin alfa therapy. For all subjects (Main study and ESA hyporesponder parallel study), the study included a Screening Period, a study Treatment Period, and a Safety Follow-Up Period as described below. PK and PD sampling were done throughout the study. The aim was to achieve and maintain Hb levels within the target range of 10.0 to 11.0 g/dL, inclusive, while targeting the middle of the range and minimizing excursions outside the target range.
Randomization. Subjects were randomized to either a vadadustat treatment arm or epoetin alfa treatment arm. Randomization was stratified by mean weekly epoetin alfa dose calculated over a period of 8 weeks prior to SV2: low epoetin alfa dose group (≤90 U/kg/week) or high epoetin alfa dose group (>90 to <300 U/kg/week). In the low epoetin alfa dose group, subjects were randomized in a 3:3:2 ratio to receive either an initial vadadustat daily dose of 450 mg (3 tablets) or 300 mg (2 tablets), or epoetin alfa. In the high epoetin alfa dose group, subjects were randomized in a 3:3:3:2 ratio to receive either an initial vadadustat daily dose of 600 mg (4 tablets), 450 mg (3 tablets) or 300 mg (2 tablets), or epoetin alfa.
Study Treatment Period (Baseline/Day 1 to Week 20). […]

[1] = Primary Evaluation Period (Average of Weeks 10 to 12), Vada 300 mg, High Epoetin Alfa (>90 to <300 U/kg/week)
[2] = Primary Evaluation Period (Average of Weeks 10 to 12), Vada 300 mg, Low Epoetin Alfa (<90 U/kg/week)
[3] = Primary Evaluation Period (Average of Weeks 10 to 12), Vada 450 mg, High Epoetin Alfa (>90 to <300 U/kg/week)
[4] = Primary Evaluation Period (Average of Weeks 10 to 12), Vada 450 mg, Low Epoetin Alfa (<90 U/kg/week)
[5] = Primary Evaluation Period (Average of Weeks 10 to 12), Vada 600 mg, High Epoetin Alfa (>90 to <300 U/kg/week)
[6] = Secondary Evaluation Period (Average of Weeks 18 to 20), Vada 300 mg, High Epoetin Alfa (>90 to <300 U/kg/week)
[7] = Secondary Evaluation Period (Average of Weeks 18 to 20), Vada 300 mg, Low Epoetin Alfa (<90 U/kg/week)
[8] = Secondary Evaluation Period (Average of Weeks 18 to 20), Vada 450 mg, High Epoetin Alfa (>90 to <300 U/kg/week)
[9] = Secondary Evaluation Period (Average of Weeks 18 to 20), Vada 450 mg, Low Epoetin Alfa (<90 U/kg/week)
[10] = Secondary Evaluation Period (Average of Weeks 18 to 20), Vada 600 mg, High Epoetin Alfa (>90 to <300 U/kg/week)
[11] = Vada 300 mg, High Epoetin Alfa (>90 to <300 U/kg/week)
[12] = Vada 300 mg, Low Epoetin Alfa (<90 U/kg/week)
[13] = Vada 450 mg, High Epoetin Alfa (>90 to <300 U/kg/week)
[14] = Vada 450 mg, Low Epoetin Alfa (<90 U/kg/week)
[15] = Vada 600 mg, High Epoetin Alfa (>90 to <300 U/kg/week)

Structure (SMILES): O=C(O)CNC(=O)c1ncc(-c2cccc(Cl)c2)cc1O [Compound 1, {[5-(3-chlorophenyl)-3-hydroxypyridine-2-carbonyl]amino}acetic acid]
- Subjects with Hb Higher than Target range (10.0 to 11.0 g/dL), number (percentage of N2) [1]: 0
- Subjects with Hb Lower than Target range (10.0 to 11.0 g/dL), number (percentage of N2) [1]: 11 (91.7)
- Subjects with Hb Within Target range (10.0 to 11.0 g/dL), number (percentage of N2) [1]: 1 (8.3)
- Subjects with Hb Higher than Target range (10.0 to 11.0 g/dL), number (percentage of N2) [2]: 2 (6.7)
- Subjects with Hb Lower than Target range (10.0 to 11.0 g/dL), number (percentage of N2) [2]: 16 (53.3)
- Subjects with Hb Within Target range (10.0 to 11.0 g/dL), number (percentage of N2) [2]: 12 (40.0)
- Subjects with Hb Higher than Target range (10.0 to 11.0 g/dL), number (percentage of N2) [3]: 4 (22.2)
- Subjects with Hb Lower than Target range (10.0 to 11.0 g/dL), number (percentage of N2) [3]: 10 (55.6)
- Subjects with Hb Within Target range (10.0 to 11.0 g/dL), number (percentage of N2) [3]: 4 (22.2)
- Subjects with Hb Higher than Target range (10.0 to 11.0 g/dL), number (percentage of N2) [4]: 6 (20.0)
- Subjects with Hb Lower than Target range (10.0 to 11.0 g/dL), number (percentage of N2) [4]: 11 (36.7)
- Subjects with Hb Within Target range (10.0 to 11.0 g/dL), number (percentage of N2) [4]: 13 (43.3)
- Subjects with Hb Higher than Target range (10.0 to 11.0 g/dL), number (percentage of N2) [5]: 2 (14.3)
- Subjects with Hb Lower than Target range (10.0 to 11.0 g/dL), number (percentage of N2) [5]: 8 (57.1)
- Subjects with Hb Within Target range (10.0 to 11.0 g/dL), number (percentage of N2) [5]: 4 (28.6)
- Subjects with Hb Higher than Target range (10.0 to 11.0 g/dL), number (percentage of N2) [6]: 1 (14.3)
- Subjects with Hb Lower than Target range (10.0 to 11.0 g/dL), number (percentage of N2) [6]: 4 (57.1)
- Subjects with Hb Within Target range (10.0 to 11.0 g/dL), number (percentage of N2) [6]: 2 (28.6)
- Subjects with Hb Higher than Target range (10.0 to 11.0 g/dL), number (percentage of N2) [7]: 4 (15.4)
- Subjects with Hb Lower than Target range (10.0 to 11.0 g/dL), number (percentage of N2) [7]: 16 (61.5)
- Subjects with Hb Within Target range (10.0 to 11.0 g/dL), number (percentage of N2) [7]: 6 (23.1)
- Subjects with Hb Higher than Target range (10.0 to 11.0 g/dL), number (percentage of N2) [8]: 2 (14.3)
- Subjects with Hb Lower than Target range (10.0 to 11.0 g/dL), number (percentage of N2) [8]: 9 (64.3)
- Subjects with Hb Within Target range (10.0 to 11.0 g/dL), number (percentage of N2) [8]: 3 (21.4)
- Subjects with Hb Higher than Target range (10.0 to 11.0 g/dL), number (percentage of N2) [9]: 3 (12.5)
- Subjects with Hb Lower than Target range (10.0 to 11.0 g/dL), number (percentage of N2) [9]: 14 (58.3)
- Subjects with Hb Within Target range (10.0 to 11.0 g/dL), number (percentage of N2) [9]: 7 (29.2)
- Subjects with Hb Higher than Target range (10.0 to 11.0 g/dL), number (percentage of N2) [10]: 1 (10.0)
- Subjects with Hb Lower than Target range (10.0 to 11.0 g/dL), number (percentage of N2) [10]: 7 (70.0)
- Subjects with Hb Within Target range (10.0 to 11.0 g/dL), number (percentage of N2) [10]: 2 (20.0)
- Change from Baseline in Hb at Primary Evaluation Period, Mean (SD) [11]: −1.048 (0.730) g/dL
- Change from Baseline in Hb at Primary Evaluation Period, Median [11]: -0.967 g/dL
- Change from Baseline in Hb at Secondary Evaluation Period, Mean (SD) [11]: 0.017 (1.086) g/dL
- Change from Baseline in Hb at Secondary Evaluation Period, Median [11]: -0.325 g/dL
- Hb at Primary Evaluation Period (Average of Weeks 10 to 12), Mean (SD) [11]: 8.82 (0.761) g/dL
- Hb at Primary Evaluation Period (Average of Weeks 10 to 12), Median [11]: 8.750 g/dL
- Hb at Secondary Evaluation Period (Average of Weeks 18 to 20), Mean (SD) [11]: 9.88 (1.027) g/dL
- Hb at Secondary Evaluation Period (Average of Weeks 18 to 20), Median [11]: 9.575 g/dL
- Change from Baseline in Hb at Primary Evaluation Period, Mean (SD) [12]: −0.421 (0.732) g/dL
- Change from Baseline in Hb at Primary Evaluation Period, Median [12]: -0.450 g/dL
- Change from Baseline in Hb at Secondary Evaluation Period, Mean (SD) [12]: −0.327 (1.086) g/dL
- Change from Baseline in Hb at Secondary Evaluation Period, Median [12]: -0.300 g/dL
- Hb at Primary Evaluation Period (Average of Weeks 10 to 12), Mean (SD) [12]: 9.78 (0.742) g/dL
- Hb at Primary Evaluation Period (Average of Weeks 10 to 12), Median [12]: 9.767 g/dL
- Hb at Secondary Evaluation Period (Average of Weeks 18 to 20), Mean (SD) [12]: 9.86 (0.932) g/dL
- Hb at Secondary Evaluation Period (Average of Weeks 18 to 20), Median [12]: 9.775 g/dL
- Change from Baseline in Hb at Primary Evaluation Period, Mean (SD) [13]: −0.130 (1.033) g/dL
- Change from Baseline in Hb at Primary Evaluation Period, Median [13]: -0.250 g/dL
- Change from Baseline in Hb at Secondary Evaluation Period, Mean (SD) [13]: −0.458 (0.895) g/dL
- Change from Baseline in Hb at Secondary Evaluation Period, Median [13]: -0.575 g/dL
- Hb at Primary Evaluation Period (Average of Weeks 10 to 12), Mean (SD) [13]: 9.96 (1.121) g/dL
- Hb at Primary Evaluation Period (Average of Weeks 10 to 12), Median [13]: 9.750 g/dL
- Hb at Secondary Evaluation Period (Average of Weeks 18 to 20), Mean (SD) [13]: 9.63 (0.954) g/dL
- Hb at Secondary Evaluation Period (Average of Weeks 18 to 20), Median [13]: 9.475 g/dL
- Change from Baseline in Hb at Primary Evaluation Period, Mean (SD) [14]: −0.074 (1.085) g/dL
- Change from Baseline in Hb at Primary Evaluation Period, Median [14]: 0.017 g/dL
- Change from Baseline in Hb at Secondary Evaluation Period, Mean (SD) [14]: −0.273 (0.827) g/dL
- Change from Baseline in Hb at Secondary Evaluation Period, Median [14]: -0.300 g/dL
- Hb at Primary Evaluation Period (Average of Weeks 10 to 12), Mean (SD) [14]: 10.08 (1.226) g/dL
- Hb at Primary Evaluation Period (Average of Weeks 10 to 12), Median [14]: 10.550 g/dL
- Hb at Secondary Evaluation Period (Average of Weeks 18 to 20), Mean (SD) [14]: 9.91 (0.909) g/dL
- Hb at Secondary Evaluation Period (Average of Weeks 18 to 20), Median [14]: 9.917 g/dL
- Change from Baseline in Hb at Primary Evaluation Period, Mean (SD) [15]: −0.541 (1.124) g/dL
- Change from Baseline in Hb at Primary Evaluation Period, Median [15]: -0.133 g/dL
- Change from Baseline in Hb at Secondary Evaluation Period, Mean (SD) [15]: −0.500 (1.025) g/dL
- Change from Baseline in Hb at Secondary Evaluation Period, Median [15]: -0.300 g/dL
- Hb at Primary Evaluation Period (Average of Weeks 10 to 12), Mean (SD) [15]: 9.62 (1.026) g/dL
- Hb at Primary Evaluation Period (Average of Weeks 10 to 12), Median [15]: 9.233 g/dL
- Hb at Secondary Evaluation Period (Average of Weeks 18 to 20), Mean (SD) [15]: 9.57 (0.871) g/dL
- Hb at Secondary Evaluation Period (Average of Weeks 18 to 20), Median [15]: 9.450 g/dL
